In paper PMC12396409, “Screening and hit evaluation of a microbial metabolite library against the pathogenic Plasmodium falciparum and Toxoplasma gondii parasites” (International Journal for Parasitology: Drugs and Drug …, 2025):
Structures can show the parent of a compound that is named as a salt. Where two headings read alike, the source gives them in different places. *1 amine or outer side, *2 acyl side, *3 side chain or, on linkers, in order; H or OH if unused. Where a SMILES comes first, the peptide text is derived from it. Bridges are numbered along the chain shown (N, C = ends). [ ]: non-standard residue; d: D form. hTyr(3S-OH,4S-OH,3'-OSO3H) = N[C@H](C(=O)O)[C@H](O)[C@@H](O)c1ccc(O)c(OS(=O)(=O)O)c1; Orn(4R-OH,5R-OH) = O=C([C@H](C[C@@H](O)[C@@H](O)N[*:3])N[*:1])[*:2]; Pro(3S-OH,4S-Me) = C[C@H]1CN[C@H](C(=O)O)[C@H]1O; Gln(3R-OH) = NC(=O)C[C@@H](O)[C@H](N)C(=O)O; Hyp = O=C(O)[C@@H]1C[C@@H](O)CN1

Legend:
[1] = test system: P. falciparum 3D7 parasites; assay: P. falciparum growth inhibition assay, 2-cycle (120 h treatment), delayed-death screen and dose-response; type: cell-based, Plasmodium falciparum; conditions: for activity at 2 µg/mL: Plasmodium falciparum
[2] = test system: T. gondii RH strain (RH-Tub-eYFP) tachyzoites; assay: microbe, parasite or virus in culture; type: cell-based, Toxoplasma gondii
[3] = test system: P. falciparum 3D7 parasites; assay: P. falciparum growth inhibition assay, 1-cycle (72 h treatment), SYBR DNA staining (library screen at 2 μg/mL and dose-response); type: cell-based, Plasmodium falciparum; conditions: for activity at 2 µg/mL: Plasmodium falciparum
[4] = P. falciparum 3D7, 120 h, parasite screen at 2 μg/mL, % growth, replicate 1
[5] = P. falciparum 3D7, 120 h, parasite screen at 2 μg/mL, % growth, replicate 2
[6] = T. gondii, 72 h, parasite screen at 2 μg/mL, % growth, replicate 1
[7] = T. gondii, 72 h, parasite screen at 2 μg/mL, % growth, replicate 2
[8] = P. falciparum 3D7, 72 h, parasite screen at 2 μg/mL, % growth, replicate 1
[9] = P. falciparum 3D7, 72 h, parasite screen at 2 μg/mL, % growth, replicate 2
[10] = library screen at 2 μg/mL, 120 h, % growth, replicate 1
[11] = library screen at 2 μg/mL, 120 h, % growth, replicate 2
[12] = library screen at 2 μg/mL, 72 h, % growth, replicate 1
[13] = library screen at 2 μg/mL, 72 h, % growth, replicate 2
[14] = 3D7, P. falciparum, 120 h, screen at 2 μg/mL, replicate 1, read-out: Pf_120h_%Growth_Rep1
[15] = 3D7, P. falciparum, 120 h, screen at 2 μg/mL, replicate 2, read-out: Pf_120h_%Growth_Rep2
[16] = 3D7, P. falciparum, 72 h, screen at 2 μg/mL, replicate 1, read-out: Pf_72h_%Growth_Rep1
[17] = 3D7, P. falciparum, 72 h, screen at 2 μg/mL, replicate 2, read-out: Pf_72h_%Growth_Rep2

CN(C)c1ccc(O)c2c1C[C@H]1C[C@H]3[C@H](N(C)C)C(O)=C(C(N)=O)C(=O)[C@@]3(O)C(O)=C1C2=O.Cl [BIA-M1472]
Pf_120h_%Growth_Rep1 [1, 4]: 1.23%
Pf_120h_%Growth_Rep2 [1, 5]: 73.75%
Tg_72h_%Growth_Rep1 [2, 6]: 5.81%
Tg_72h_%Growth_Rep2 [2, 7]: 37.51%
Pf_72h_%Growth_Rep1 [3, 8]: 19.15%
Pf_72h_%Growth_Rep2 [3, 9]: 16.74%

C[C@@H](O)[C@@H]1NC(=O)[C@@H](N)C[C@@H](O)[C@@H](O)NC(=O)[C@@H]2[C@@H](O)[C@@H](C)CN2C(=O)[C@H]([C@H](O)CC(N)=O)NC(=O)[C@H]([C@H](O)[C@@H](O)c2ccc(O)c(OS(=O)(=O)O)c2)NC(=O)[C@@H]2C[C@@H](O)CN2C1=O [FR 179642] (H-[Orn(4R-OH,5R-OH)]T[Hyp][hTyr(3S-OH,4S-OH,3'-OSO3H)][Gln(3R-OH)][Pro(3S-OH,4S-Me)]; lactam 1-C)
Pf_120h_%Growth_Rep1 [1, 10]: 98.57%
Pf_120h_%Growth_Rep2 [1, 11]: 95.35%
Tg_72h_%Growth_Rep1 [2, 12]: 133.49%
Tg_72h_%Growth_Rep2 [2, 13]: 86.61%
Pf_72h_%Growth_Rep1 [3, 12]: 86.67%
Pf_72h_%Growth_Rep2 [3, 13]: 86.11%

C=C1C(=O)O[C@H]2C(=O)O[C@H](CCCCCCCC)[C@@H]12 [Avenaciolide]
Pf_120h_%Growth_Rep1 [1, 10]: 53.72%
Pf_120h_%Growth_Rep2 [1, 11]: 80.39%
Tg_72h_%Growth_Rep1 [2, 12]: 102.05%
Tg_72h_%Growth_Rep2 [2, 13]: 95.83%
Pf_72h_%Growth_Rep1 [3, 12]: 79.34%
Pf_72h_%Growth_Rep2 [3, 13]: 78.44%

COc1ccc2c3c4n(c2c1)[C@H](C=C(C)C)OOC(C)(C)C[C@@H]4N1C(=O)[C@@H]2CCCN2C(=O)[C@]1(O)[C@H]3O [Verruculogen]
activity at 2 µg/mL [1, 14]: 144%
activity at 2 µg/mL [1, 15]: 80.6%
percent parasite growth at 2 µg/mL ([2]; Toxoplasma gondii; T. gondii, 72 h, screen at 2 μg/mL, replicate 1; read-out: Tg_72h_%Growth_Rep1): 92.4%
percent parasite growth at 2 µg/mL ([2]; Toxoplasma gondii; T. gondii, 72 h, screen at 2 μg/mL, replicate 2; read-out: Tg_72h_%Growth_Rep2): 102%
activity at 2 µg/mL [3, 16]: 58.1%
activity at 2 µg/mL [3, 17]: 88.5%

C[C@H]1C(=O)O[C@@H]2CCN3CC=C(COC(=O)[C@](C)(O)[C@]1(C)O)[C@H]23 [BIA-M1801]
Pf_120h_%Growth_Rep1 [1, 4]: 81.80%
Pf_120h_%Growth_Rep2 [1, 5]: 104.58%
Tg_72h_%Growth_Rep1 [2, 6]: 108.79%
Tg_72h_%Growth_Rep2 [2, 7]: 79.49%
Pf_72h_%Growth_Rep1 [3, 8]: 85.52%
Pf_72h_%Growth_Rep2 [3, 9]: 78.69%

CN1C(=O)c2ccccc2NC(=O)/C1=C/c1ccccc1 [Dehydrocyclopeptine]
Pf_120h_%Growth_Rep1 ([1]; P. falciparum, 120 h, screen at 2 μg/mL, replicate 1): 82.86%
Pf_120h_%Growth_Rep2 ([1]; P. falciparum, 120 h, screen at 2 μg/mL, replicate 2): 97.23%
Tg_72h_%Growth_Rep1 ([2]; T. gondii, 72 h, screen at 2 μg/mL, replicate 1): 109.69%
Tg_72h_%Growth_Rep2 ([2]; T. gondii, 72 h, screen at 2 μg/mL, replicate 2): 83.37%
Pf_72h_%Growth_Rep1 ([3]; P. falciparum, 72 h, screen at 2 μg/mL, replicate 1): 83.17%
Pf_72h_%Growth_Rep2 ([3]; P. falciparum, 72 h, screen at 2 μg/mL, replicate 2): 27.60%

CCO[C@@H]1[C@@H](OC)[C@H](C)O[C@@H](O[C@@H]2C[C@H]3CC[C@@H]4[C@@H](C=C5C(=O)[C@H](C)[C@@H](O)CCC[C@H](CC)OC(=O)C[C@H]54)[C@@H]3C2)[C@@H]1OC
Pf_120h_%Growth_Rep1 ([1]; P. falciparum, 120 h, parasite screen 2 μg/mL, % growth, replicate 1): 31.22%
Pf_120h_%Growth_Rep2 ([1]; P. falciparum, 120 h, parasite screen 2 μg/mL, % growth, replicate 2): 24.15%
Tg_72h_%Growth_Rep1 ([2]; T. gondii, 72 h, parasite screen 2 μg/mL, % growth, replicate 1): 110.35%
Tg_72h_%Growth_Rep2 ([2]; T. gondii, 72 h, parasite screen 2 μg/mL, % growth, replicate 2): 84.17%
Pf_72h_%Growth_Rep1 ([3]; P. falciparum, 72 h, parasite screen 2 μg/mL, % growth, replicate 1): 35.55%
Pf_72h_%Growth_Rep2 ([3]; P. falciparum, 72 h, parasite screen 2 μg/mL, % growth, replicate 2): 25.61%

CCCCCC(=O)OC1C(C)OC(OC2C(C)OC(OC3C(CC=O)CC(C)C(O)C=CC=CCC(C)OC(=O)CC(O)C3OC)C(O)C2N(C)C)CC1(C)O (stereo not drawn) [BIA-L1365]
Pf_120h_%Growth_Rep1 ([1]; P. falciparum 3D7, 120 h, library screen at 2 μg/mL, % growth, replicate 1): 2.62%
Pf_120h_%Growth_Rep2 ([1]; P. falciparum 3D7, 120 h, library screen at 2 μg/mL, % growth, replicate 2): 15.42%
Tg_72h_%Growth_Rep1 ([2]; T. gondii RH, 72 h, library screen at 2 μg/mL, % growth, replicate 1): 22.41%
Tg_72h_%Growth_Rep2 ([2]; T. gondii RH, 72 h, library screen at 2 μg/mL, % growth, replicate 2): 22.70%
Pf_72h_%Growth_Rep1 ([3]; P. falciparum 3D7, 72 h, library screen at 2 μg/mL, % growth, replicate 1): 29.67%
Pf_72h_%Growth_Rep2 ([3]; P. falciparum 3D7, 72 h, library screen at 2 μg/mL, % growth, replicate 2): 36.72%

C[C@@H]1C=C2C(=O)O[C@@H]3CC[C@H](C1)[C@]23O [Galiellalactone]
Pf_120h_%Growth_Rep1 [1, 10]: 91.95%
Pf_120h_%Growth_Rep2 [1, 11]: 97.41%
Tg_72h_%Growth_Rep1 [2, 12]: 132.28%
Tg_72h_%Growth_Rep2 [2, 13]: 99.14%
Pf_72h_%Growth_Rep1 [3, 12]: 88.40%
Pf_72h_%Growth_Rep2 [3, 13]: 106.75%

C=C(C)[C@@H]1CC[C@]2(C(=O)O)CC[C@]3(C)[C@H](CC[C@@H]4[C@@]5(C)CC[C@H](O)C(C)(C)[C@@H]5CC[C@]43C)[C@@H]12 [Betulinic acid]
activity at 2 µg/mL ([1]; 3D7, library screen at 2 μg/mL, 120 h, % growth, replicate 1, read-out: Pf_120h_%Growth_Rep1): 70.3%
activity at 2 µg/mL ([1]; 3D7, library screen at 2 μg/mL, 120 h, % growth, replicate 2, read-out: Pf_120h_%Growth_Rep2): 59.9%
percent parasite growth at 2 µg/mL ([2]; Toxoplasma gondii, 72 h, library screen at 2 μg/mL, 72 h, % growth, replicate 1; read-out: Tg_72h_%Growth_Rep1): 107%
percent parasite growth at 2 µg/mL ([2]; Toxoplasma gondii, 72 h, library screen at 2 μg/mL, 72 h, % growth, replicate 2; read-out: Tg_72h_%Growth_Rep2): 88%
activity at 2 µg/mL ([3]; 3D7, library screen at 2 μg/mL, 72 h, % growth, replicate 1, read-out: Pf_72h_%Growth_Rep1): 73.8%
activity at 2 µg/mL ([3]; 3D7, library screen at 2 μg/mL, 72 h, % growth, replicate 2, read-out: Pf_72h_%Growth_Rep2): 76.9%

CN[C@H](CC(C)C)C(=O)N[C@H]1C(=O)N[C@@H](CC(N)=O)C(=O)N[C@H]2C(=O)N[C@H]3C(=O)N[C@H](C(=O)N[C@H](C(=O)O)c4cc(O)cc(O)c4-c4cc3ccc4O)[C@H](O)c3ccc(c(Cl)c3)Oc3cc2cc(c3O[C@@H]2O[C@H](CO)[C@@H](O)[C@H](O)[C@H]2O[C@H]2C[C@](C)(N)[C@H](O)[C@H](C)O2)Oc2ccc(cc2Cl)[C@H]1O [Vancomycin hydrochloride]
activity at 2 µg/mL ([1]; 3D7, 120 h, read-out: Pf_120h_%Growth_Rep1): 110%
activity at 2 µg/mL ([1]; 3D7, 120 h, read-out: Pf_120h_%Growth_Rep2): 98.5%
percent parasite growth at 2 µg/mL ([2]; Toxoplasma gondii, 72 h, read-out: Tg_72h_%Growth_Rep1): 108%
percent parasite growth at 2 µg/mL ([2]; Toxoplasma gondii, 72 h, read-out: Tg_72h_%Growth_Rep2): 80.9%
activity at 2 µg/mL ([3]; 3D7, 72 h, read-out: Pf_72h_%Growth_Rep1): 88%
activity at 2 µg/mL ([3]; 3D7, 72 h, read-out: Pf_72h_%Growth_Rep2): 120%

C[C@H]1CC[C@H]2[C@@H](C=C[C@@H]3[C@H]4[C@@H](C)O[C@]5(O)[C@@H](CO)N(C)C(=O)[C@]45C(=O)[C@@]32C)C1 [Fusarisetin A]
Pf_120h_%Growth_Rep1 [1, 10]: 74.69%
Pf_120h_%Growth_Rep2 [1, 11]: 108.30%
Tg_72h_%Growth_Rep1 [2, 12]: 159.47%
Tg_72h_%Growth_Rep2 [2, 13]: 97.52%
Pf_72h_%Growth_Rep1 [3, 12]: 74.99%
Pf_72h_%Growth_Rep2 [3, 13]: 87.91%

CO[C@H]1C[C@@H]2CC[C@@H](C)[C@@](O)(O2)C(=O)C(=O)N2CCCC[C@H]2C(=O)O[C@H]([C@H](C)C[C@@H]2CC[C@@H](OC(=O)C(C)(CO)CO)[C@H](OC)C2)CC(=O)[C@H](C)/C=C(\C)[C@@H](O)[C@@H](OC)C(=O)[C@H](C)C[C@H](C)/C=C/C=C/C=C/1C [Temsirolimus]
activity at 2 µg/mL [1, 14]: 61.2%
activity at 2 µg/mL [1, 15]: 46.5%
percent parasite growth at 2 µg/mL ([2]; Toxoplasma gondii, 72 h, T. gondii, 72 h, screen at 2 μg/mL, replicate 1; read-out: Tg_72h_%Growth_Rep1): 97%
percent parasite growth at 2 µg/mL ([2]; Toxoplasma gondii, 72 h, T. gondii, 72 h, screen at 2 μg/mL, replicate 2; read-out: Tg_72h_%Growth_Rep2): 76.6%
activity at 2 µg/mL [3, 16]: 59.1%
activity at 2 µg/mL [3, 17]: 47.4%

CC1=C\[C@@H](O)CC(=O)Cc2nc(co2)C(=O)N2CCC=C2C(=O)O[C@H](C(C)C)[C@H](C)/C=C/C(=O)NC\C=C\1 [BIA-O1131]
Pf_120h_%Growth_Rep1 [1, 4]: 16.87%
Pf_120h_%Growth_Rep2 [1, 5]: 26.94%
Tg_72h_%Growth_Rep1 [2, 6]: 125.71%
Tg_72h_%Growth_Rep2 [2, 7]: 88.67%
Pf_72h_%Growth_Rep1 [3, 8]: 59.89%
Pf_72h_%Growth_Rep2 [3, 9]: 79.42%
